Source: PubChem BioAssay (NCI)
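Protocol summary: plate cells (96-well), add compound at 5 concentrations, incubate 48 h, interpolate endpoints linearly. TGI marks complete inhibition of growth.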

Key:
Experiment in all cases: growth of human tumour cells (NCI), 48 h
[1] = test system: 786-0 renal
[2] = test system: ACHN renal
[3] = test system: DMS 273 small cell lung
[4] = test system: EKVX NSCLC
[5] = test system: HCC-2998 colon
[6] = test system: HCT-116 colon
[7] = test system: HL-60(TB) leukemia
[8] = test system: KM12 colon
[9] = test system: NCI-H226 lung
[10] = test system: OVCAR-4 ovarian
[11] = test system: RPMI-8226 leukemia
[12] = test system: SF-295 CNS
[13] = test system: SK-MEL-5 melanoma
[14] = test system: SN12C renal
[15] = test system: SNB-78 CNS
[16] = test system: TK-10 renal
[17] = test system: MDA-MB-435
[18] = test system: MDA-N
[19] = test system: PC-3 prostate
[20] = test system: T-47D breast

Row | Compound | TGI [1] [µM] | TGI [2] [µM] | TGI [3] [µM] | TGI [4] [µM] | TGI [5] [µM] | TGI [6] [µM] | TGI [7] [µM] | TGI [8] [µM] | TGI [9] [µM] | TGI [10] [µM] | TGI [11] [µM] | TGI [12] [µM] | TGI [13] [µM] | TGI [14] [µM] | TGI [15] [µM] | TGI [16] [µM] | TGI [17] [µM] | TGI [18] [µM] | TGI [19] [µM] | TGI [20] [µM]
1 | O=C1[C@@H]2C(c3ccccc3[N+](=O)[O-])=[N+](c3ccccc3)O[C@@H]2C(=O)N1c1ccc(Cc2ccc(N3C(=O)[C@H]4C(c5ccccc5[N+](=O)[O-])=[N+](c5ccccc5)O[C@H]4C3=O)cc2)cc1 | > 100 | > 100 | > 100 | > 100 | > 100 | > 100 | > 100 | > 100 | > 100 | > 100 | > 100 | > 100 | > 100 | > 100 | > 100 | > 100 |  |  |  | 
2 | CCOC(=O)C(C(=O)OCC)c1ccc([N+](=O)[O-])o1 | 13.4 | 22.6 | 33.4 | 35.4 | 31.3 | 29 | > 22.3 | 33.9 | 45.7 | 32.4 | 23.6 | 36.8 | 31.5 | 32.2 | 34.8 | 30.8 |  |  |  | 
3 | Cc1cc(C)n(-c2ccnc3cc(Cl)ccc23)n1 | > 100 | > 100 | > 100 | > 100 | > 100 | > 100 | > 100 | > 100 | > 100 | > 100 | > 100 | > 100 | > 100 | > 100 | > 100 | > 100 |  |  |  | 
4 | N#Cc1cc([N+](=O)[O-])ccc1NC(=O)/C(=N\NC(=O)c1ccncc1)C(c1cnc2ccc([N+](=O)[O-])cc2n1)[N+](=O)[O-] (centres undefined) | 6.16 | 9.14 | 6.59 | 25.1 | 22.2 | 7.33 | 10.6 | 7.53 | 7.58 | 5.76 | 41.7 | 4 | 2.14 | 3.71 | 21.6 | 28.3 | 2.59 | 1.26 | 21.4 | 18.4
5 | O=C1C=CC(=O)c2c1ccc1c3ccccc3n(-c3ccccc3)c21 | 33 | 11.1 | 32.1 | 28.7 | 50.6 | 7.03 | 2.34 | 37.7 | 40 | 27.2 | 4.59 | 22.2 | 31.2 | 26.6 | 53.8 | 17.8 | 30.3 | 18.3 | 27 | 4.78
6 | NC(=O)/C(=N\NC(=O)C[n+]1ccccc1)C1NC(=O)NC1=O (centres undefined) | > 100 | > 100 | > 100 | > 100 | > 100 | > 100 | > 100 | > 100 | > 100 | > 100 | > 100 | > 100 | > 100 | > 100 | > 100 | > 100 |  |  |  | 
